# Laboratory results as given in PMC11020070, “Discovery of Protease-Activated Receptor 4 (PAR4)-Tethered Ligand Antagonists Using Ultralarge Virtual Screening” (ACS Pharmacology & Translational Science, 2024).
# “Also recorded” adds a separate entry of the source.
# Columns and labels:
# Type in all cases: cell-based
# [1] = biological target: T1, PAR1 (Homo sapiens, UniProt P25116); experiment: Human platelet activation by PAR1 agonist peptide SFLLRN; conditions: 10 μM compound, PAR1AP SFLLRN
# T1 construct: endogenous in cells; host or cells: platelets
# T1 sequence (P25116 22-425): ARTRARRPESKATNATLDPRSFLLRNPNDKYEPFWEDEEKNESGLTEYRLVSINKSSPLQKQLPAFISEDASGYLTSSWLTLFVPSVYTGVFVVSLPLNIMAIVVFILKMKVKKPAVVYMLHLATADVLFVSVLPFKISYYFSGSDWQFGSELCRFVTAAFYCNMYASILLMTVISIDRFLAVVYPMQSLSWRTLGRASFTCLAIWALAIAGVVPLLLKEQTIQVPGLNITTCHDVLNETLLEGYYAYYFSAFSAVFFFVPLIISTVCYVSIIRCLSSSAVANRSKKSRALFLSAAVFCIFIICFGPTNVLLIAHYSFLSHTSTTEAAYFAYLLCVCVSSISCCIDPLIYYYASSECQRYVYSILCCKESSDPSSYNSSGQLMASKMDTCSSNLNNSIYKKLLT
# Protocol: (§1) Figure 5 (A) Off-target controls: % of vehicle control for γ-thrombin (100 nM), PAR4 component of α-thrombin (5 nM α-thrombin +1 μM vorapaxar), PAR4 agonist peptide 200 μM AYPGKF, 200 μM PAR1 agonist peptide SFLLRN, and GPVI agonist convulxin 3.16 nM.
# (§2) Compounds were screened for inhibition activity against human PAR4 using 100 nM γ-thrombin or 200 μM PAR4-AP in a single-point assay (10 μM test compound). Dose–response curves were conducted for active compounds. Active compounds were also assessed at a single concentration of 10 μM against other agonists, including the PAR4 component of α-thrombin (5 nM α-thrombin +1 μM vorapaxar), the PAR1 agonist peptide (20 μM SFFLRN), and the GPVI receptor agonist convulxin (3 nM).
# [2] = biological target: T2, GPVI receptor (Homo sapiens, UniProt Q9HCN6); experiment: Off-target control: convulxin activation of GPVI receptor in human platelets; conditions: 10 μM compound, convulxin 3.16 nM
# T2 construct: endogenous in cells; host or cells: washed human platelets
# T2 sequence (Q9HCN6 21-339): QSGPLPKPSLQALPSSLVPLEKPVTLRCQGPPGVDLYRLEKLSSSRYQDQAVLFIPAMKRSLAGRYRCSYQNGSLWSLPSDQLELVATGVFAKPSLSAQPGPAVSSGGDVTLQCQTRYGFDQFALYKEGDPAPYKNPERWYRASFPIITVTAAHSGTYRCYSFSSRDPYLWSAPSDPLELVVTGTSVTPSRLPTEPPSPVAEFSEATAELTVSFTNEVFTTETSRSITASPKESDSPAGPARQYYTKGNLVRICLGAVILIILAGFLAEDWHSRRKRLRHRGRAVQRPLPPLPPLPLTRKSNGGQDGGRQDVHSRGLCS
# T2 sequence (P30273 19-86 partner): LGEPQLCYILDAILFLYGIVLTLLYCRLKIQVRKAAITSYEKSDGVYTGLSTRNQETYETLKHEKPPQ
# Protocol: The hit compound (7) was tested against several platelet activators including targeting PAR1, PAR4, and GPVI collagen receptors (Figure 5). […] Taken together, the inhibition of the off-target GPVI and the divergence of the inhibition of the γ-thrombin readouts PAC1 vs P-selectin are consistent with the C5 compound not being a specific antagonist of PAR4.
# as §1, §2
# [3] = biological target: T3, PAR4 (Homo sapiens, UniProt Q96RI0); experiment: Human platelet activation by PAR4 agonist peptide (PAR4-AP, AYPGKF); set-up: endogenous in cells; host or cells: platelets; conditions: 10 μM compound, 200 μM AYPGKF
# T3 sequence (Q96RI0 18-385): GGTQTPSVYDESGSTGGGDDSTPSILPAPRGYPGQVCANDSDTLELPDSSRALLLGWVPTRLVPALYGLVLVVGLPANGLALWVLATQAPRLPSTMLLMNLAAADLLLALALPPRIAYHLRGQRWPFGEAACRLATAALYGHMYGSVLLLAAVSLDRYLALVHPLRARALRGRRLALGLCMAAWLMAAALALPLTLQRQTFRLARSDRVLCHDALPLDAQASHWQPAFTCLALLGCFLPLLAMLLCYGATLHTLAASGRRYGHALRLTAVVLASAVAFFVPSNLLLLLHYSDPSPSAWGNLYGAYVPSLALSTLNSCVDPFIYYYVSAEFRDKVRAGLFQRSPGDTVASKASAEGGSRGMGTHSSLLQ
# Protocol: To test the antagonistic effect of the compounds on PAR4, a flow cytometry assay of human platelets was employed. Each compound was screened at 10 μM in human platelets using flow cytometry for GPIIbIIIa activation (PAC1) and P-selectin (CD62p) expression as previously described.[4] Activation of GPIIbIIIa allows interaction with divalent fibrinogen or multivalent von Willebrand factor, leading to platelet aggregation.[41] PAR4 stimulation also triggers α-granule secretion containing P-selectin.[5] […] Platelets were treated with each test compound or vehicle control DMSO before activating with γ-thrombin (100 nM) or PAR4 agonist peptide mimetic (200 μM, “PAR4-AP” AYPGKF) for 30 min. γ-thrombin activates PAR4 but not PAR1.[42] […]
# Activation of washed human platelets was monitored by flow cytometry for the detection of PAC1 (GPIIbIIIa activation) and CD62p (P-selectin expression) binding as previously described.[4] […] Platelets were collected, counted on a Z1 Coulter Particle Counter (Beckman Coulter, Brea, CA), and diluted in TBB to 1.5 × 10^7 platelets/mL. […] Data were collected on a three-laser BD LSRFortessa (Becton Dickinson) and analyzed with FlowJo software (FlowJo LLC, Ashland, OR). The mean fluorescence intensity (geometric) of PE and FITC was determined from 30,000 events after compensation correction. […]
smiles,measurement,setting,value
Cc1nc(NC(=O)c2cc(-c3ccccc3)n(-c3ccccc3)n2)n[nH]1 [Compound 7],inhibition of PAR1 agonist peptide activation,[1],did not inhibit
same,inhibition of convulxin activation of GPVI receptor,[2],did not inhibit
same,inhibition of PAR4 agonist peptide activation,[3],not inhibiting; also recorded: did not inhibit
